From the NIST ThermoML archive (doi:10.1021/je101173w)
± gives the expanded uncertainty stated by the source.

How the values were obtained:
[1] = mn = molality of the nth substance listed, in mol/kg; settings: 101 kPa, Liquid; for viscosity: Capillary tube (Ostwald / Ubbelohde) method; for mass density: Vibrating tube method
[2] = 101.33 kPa, Liquid; for viscosity: Capillary tube (Ostwald / Ubbelohde) method; for mass density: Vibrating tube method

Oc1cccc(O)c1 [1,3-benzenediol] + CCCCO
[1]
Settings	mass density, 293.15 K [kg/m3]	mass density, 303.15 K [kg/m3]	mass density, 313.15 K [kg/m3]	mass density, 323.15 K [kg/m3]	mass density, 333.15 K [kg/m3]	viscosity, 293.15 K [mPa·s]	viscosity, 303.15 K [mPa·s]	viscosity, 313.15 K [mPa·s]	viscosity, 323.15 K [mPa·s]	viscosity, 333.15 K [mPa·s]
m1 = 1.016	844.32 ± 0.16	836.69 ± 0.16	828.92 ± 0.16	821.01 ± 0.16	812.92 ± 0.16	4.518 ± 0.027	3.357 ± 0.021	2.54 ± 0.016	1.972 ± 0.012	1.674 ± 0.011
m1 = 2.196	878.29 ± 0.15	870.07 ± 0.15	862.36 ± 0.15	854.51 ± 0.15	846.52 ± 0.15	7.007 ± 0.039	5.06 ± 0.03	3.71 ± 0.023	2.809 ± 0.017	2.33 ± 0.014
m1 = 3.586	910.51 ± 0.14	902.98 ± 0.14	895.33 ± 0.14	887.57 ± 0.14	879.68 ± 0.15	11.56 ± 0.061	8.021 ± 0.044	5.552 ± 0.033	4.091 ± 0.025	3.274 ± 0.02
m1 = 5.247	942.6 ± 0.13	935.1 ± 0.13	927.53 ± 0.13	919.86 ± 0.14	912.09 ± 0.14	19.75 ± 0.1	12.64 ± 0.066	8.601 ± 0.047	6.096 ± 0.035	4.84 ± 0.029
m1 = 7.265	974.13 ± 0.13	966.7 ± 0.13	959.2 ± 0.13	951.6 ± 0.13	943.92 ± 0.13	34.34 ± 0.17	20.69 ± 0.11	13.18 ± 0.069	8.804 ± 0.048	6.635 ± 0.037

Oc1cccc(O)c1 [1,3-benzenediol] + CCCO
[1]
Settings	mass density, 293.15 K [kg/m3]	mass density, 303.15 K [kg/m3]	mass density, 313.15 K [kg/m3]	mass density, 323.15 K [kg/m3]	mass density, 333.15 K [kg/m3]	viscosity, 293.15 K [mPa·s]	viscosity, 303.15 K [mPa·s]	viscosity, 313.15 K [mPa·s]	viscosity, 323.15 K [mPa·s]	viscosity, 333.15 K [mPa·s]
m1 = 1.252	846.41 ± 0.15	838.23 ± 0.16	830.12 ± 0.16	821.85 ± 0.16	813.35 ± 0.16	3.605 ± 0.022	2.74 ± 0.017	2.133 ± 0.013	1.675 ± 0.011	1.374 ± 0.0088
m1 = 2.709	886.87 ± 0.14	878.7 ± 0.15	870.62 ± 0.15	862.49 ± 0.15	854.18 ± 0.15	6.043 ± 0.035	4.375 ± 0.026	3.292 ± 0.02	2.465 ± 0.015	1.952 ± 0.012
m1 = 4.423	924.61 ± 0.14	916.62 ± 0.14	908.69 ± 0.14	900.65 ± 0.14	892.48 ± 0.14	10.37 ± 0.056	7.225 ± 0.041	5.137 ± 0.031	3.736 ± 0.023	2.862 ± 0.018
m1 = 6.471	960.5 ± 0.13	952.55 ± 0.13	944.74 ± 0.13	936.83 ± 0.13	928.84 ± 0.13	18.52 ± 0.096	12.05 ± 0.064	8.179 ± 0.045	5.696 ± 0.033	4.195 ± 0.025
m1 = 8.959	994.1 ± 0.12	986.39 ± 0.12	978.72 ± 0.12	970.97 ± 0.13	963.1 ± 0.13	33.22 ± 0.16	20.29 ± 0.1	12.82 ± 0.068	8.199 ± 0.045	6.412 ± 0.036

Oc1cccc(O)c1 [1,3-benzenediol] + CCO
[1]
Settings	mass density, m1 = 1.634 [kg/m3]	mass density, m1 = 3.537 [kg/m3]	mass density, m1 = 5.77 [kg/m3]	mass density, m1 = 8.441 [kg/m3]	mass density, m1 = 11.69 [kg/m3]	viscosity, m1 = 1.634 [mPa·s]	viscosity, m1 = 3.537 [mPa·s]	viscosity, m1 = 5.77 [mPa·s]	viscosity, m1 = 8.441 [mPa·s]	viscosity, m1 = 11.69 [mPa·s]
293.15 K	847.02 ± 0.14	897.16 ± 0.13	941.64 ± 0.12	981.15 ± 0.12	1017.03 ± 0.12	2.136 ± 0.013	3.742 ± 0.022	6.373 ± 0.035	11.33 ± 0.059	21.33 ± 0.1
303.15 K	838.53 ± 0.14	889.03 ± 0.13	933.72 ± 0.12	973.42 ± 0.12	1007.47 ± 0.12	1.707 ± 0.01	3.078 ± 0.018	4.872 ± 0.028	8.487 ± 0.046	15.56 ± 0.078
313.15 K	830.12 ± 0.15	880.71 ± 0.13	925.87 ± 0.13	965.64 ± 0.12	1002.06 ± 0.11	1.421 ± 0.0087	2.294 ± 0.014	3.648 ± 0.022	5.94 ± 0.034	9.505 ± 0.051
323.15 K	821.65 ± 0.15	872.63 ± 0.14	918.18 ± 0.13	957.95 ± 0.12	994.49 ± 0.11	1.265 ± 0.0079	1.947 ± 0.012	2.864 ± 0.017	4.295 ± 0.025	6.578 ± 0.036

Oc1cccc(O)c1 [1,3-benzenediol] + O
[1]
Settings	mass density, 293.15 K [kg/m3]	mass density, 303.15 K [kg/m3]	mass density, 313.15 K [kg/m3]	mass density, 323.15 K [kg/m3]	mass density, 333.15 K [kg/m3]	viscosity, 293.15 K [mPa·s]	viscosity, 303.15 K [mPa·s]	viscosity, 313.15 K [mPa·s]	viscosity, 323.15 K [mPa·s]	viscosity, 333.15 K [mPa·s]
m1 = 2.361	1041.62 ± 0.11	1037.63 ± 0.11	1032.94 ± 0.11	1027.74 ± 0.11	1021.98 ± 0.11	1.615 ± 0.0096	1.25 ± 0.0076	1.012 ± 0.0063	0.8329 ± 0.0053	0.6974 ± 0.0046
m1 = 4.819	1073.42 ± 0.12	1068.64 ± 0.12	1062.96 ± 0.12	1057.26 ± 0.12	1050.76 ± 0.12	2.481 ± 0.014	1.874 ± 0.011	1.474 ± 0.0089	1.181 ± 0.0073	0.9741 ± 0.0061
m1 = 7.567	1099.32 ± 0.13	1093.72 ± 0.13	1087.57 ± 0.12	1081.27 ± 0.12	1074.55 ± 0.12	3.681 ± 0.021	2.72 ± 0.016	2.089 ± 0.012	1.629 ± 0.0098	1.311 ± 0.0081
m1 = 10.59	1120.13 ± 0.13	1113.97 ± 0.13	1107.55 ± 0.13	1100.86 ± 0.13	1094.26 ± 0.13	5.347 ± 0.03	3.844 ± 0.022	2.867 ± 0.017	2.193 ± 0.013	1.727 ± 0.01
m1 = 13.9	1137.42 ± 0.14	1130.96 ± 0.14	1124.23 ± 0.14	1117.62 ± 0.13	1110.53 ± 0.13	7.61 ± 0.04	5.36 ± 0.03	3.9 ± 0.023	2.909 ± 0.017	2.247 ± 0.013

CCO [ethanol]
[2]
Settings	mass density [kg/m3]	viscosity [mPa·s]
293.15 K	790.08 ± 0.15	1.211 ± 0.0075
303.15 K	781 ± 0.16	0.9977 ± 0.0063
313.15 K	772.31 ± 0.16	0.8319 ± 0.0054
323.15 K	763.35 ± 0.16	0.6876 ± 0.0046
333.15 K	754.2 ± 0.16	0.5806 ± 0.004
